# Data: patent US11351265B2, “Process for formulating an anionic agent” (Dicerna Pharmaceuticals, Inc., priority 2013, dated 2022)
# Assay: Solubility of cholesterol in ethanol
# Assay type: physicochemical
# Details: organic solvent or mixture, room temperature, absence of other lipids and/or sterols, read-out: solubility limit in ethanol
# Source text: Thus, a process is provided for raising the amount of an original lipid, sterol and/or blend of lipid(s) and/or sterol(s) that may be solubilized in a solvent (e.g., an alcoholic solvent, e.g., ethanol) by pre-mixing other lipid(s), sterol(s) and/or blend of lipid(s) and/or sterol(s), as oils, powders and/or in solvent(s), before adding such a pre-mixture to the original solubility-limited lipid, sterol and/or blend of lipid(s), thereby effectively raising the solubility limit of the original lipid in the solvent. […] Without wishing to be bound by theory, it is believed that the newly discovered ability to provide high concentration solutions of lipids/sterols at such elevated concentrations enhances the homogeneity of a lipid-anionic agent particle population, as compared to the concentrations at which such lipids/sterols are routinely used within the particle formulation process.
# The above-described process schematically exemplified in FIG. 1, which is also referred to herein as “2141”, was not only distinguished from other tested processes in the order of addition of DsiRNA-lipid complexes and additional lipids in ethanol, but also was distinguished from other processes by the concentration of lipids and sterols that were solubilized in the additional lipids in ethanol solution. […]
smiles,measurement,value
CC(C)CCC[C@@H](C)[C@H]1CC[C@H]2[C@@H]3CC=C4C[C@@H](O)CC[C@]4(C)[C@H]3CC[C@]12C [cholesterol],solubility,10 to 11 mg/mL
